One experiment has as its target T1, Adenosine deaminase (Mus musculus, UniProt P03958).
T1 sequence (P03958 whole entry): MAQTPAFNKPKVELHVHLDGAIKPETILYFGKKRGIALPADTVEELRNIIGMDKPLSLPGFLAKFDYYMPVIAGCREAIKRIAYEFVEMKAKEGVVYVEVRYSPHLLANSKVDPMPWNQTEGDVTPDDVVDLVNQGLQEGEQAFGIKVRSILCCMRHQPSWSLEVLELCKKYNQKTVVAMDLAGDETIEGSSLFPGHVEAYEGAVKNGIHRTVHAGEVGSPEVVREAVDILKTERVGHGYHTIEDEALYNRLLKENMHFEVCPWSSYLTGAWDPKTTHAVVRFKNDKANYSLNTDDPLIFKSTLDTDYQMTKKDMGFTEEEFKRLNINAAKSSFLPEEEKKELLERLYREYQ
The experiment is described as follows: Compound was tested for the inhibitory constant for adenosine deaminase (ADA).
Take `O=c1ncccn1[C@@H]1O[C@H](CO)[C@@H](O)[C@H]1O` [ZEBULARINE]: the affinity corresponds to a Ki of 1 µM.

For the next experiment, the target named is Cytidine deaminase (Mus musculus, UniProt P56389). The experiment is described as follows: Compound was tested for the inhibitory constant for mouse kidney cytidine deaminase.
Cytidine deaminase, sequence (P56389 whole entry): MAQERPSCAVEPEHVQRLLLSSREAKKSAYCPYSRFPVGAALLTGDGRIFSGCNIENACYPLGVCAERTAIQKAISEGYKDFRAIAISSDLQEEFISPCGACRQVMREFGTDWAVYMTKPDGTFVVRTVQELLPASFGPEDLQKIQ
For the compound `OC[C@H]1O[C@@H](n2cnc3cncnc32)[C@H](O)[C@@H]1O` [NEBULARINE], the affinity corresponds to a Ki of 10 µM.

For `O=C1NC(CO)C=CN1C1O[C@H](CO)[C@@H](O)[C@H]1O` (stereo partly drawn), the inhibition constant (Ki) (in general, the dissociation constant of the complex between target and ligand, obtained from inhibition or displacement) was determined as 0.4 µM.

`O=C1NC=CCN1C1O[C@H](CO)[C@@H](O)[C@H]1O` (stereo partly drawn) showed a Ki of 4 µM.

As for `O=c1nc(CO)ccn1C1O[C@H](CO)[C@@H](O)[C@H]1O` (stereo partly drawn), the affinity corresponds to a Ki of 100 µM.

As for `OCC1NC=Nc2c1ncn2[C@@H]1O[C@H](CO)[C@@H](O)[C@H]1O` (stereo partly drawn), the affinity, expressed as Ki, was 10 µM.

Consider `O=C1NC(C(O)O)CCN1C1O[C@H](CO)[C@@H](O)[C@H]1O` (stereo partly drawn), for which the Ki turned out to be 20 µM.

`O=C1NCC=CN1[C@@H]1O[C@H](CO)[C@@H](O)[C@H]1O` registered an inhibition constant Ki of 4 µM.

Source of the values: ChEMBL document CHEMBL1123331, “Synthesis of pyrimidin-2-one nucleosides as acid-stable inhibitors of cytidine deaminase” (J Med Chem, 1986).
